Assay results: patent US7671085B2, “Non-steroidal farnesoid X receptor modulators and methods for the use thereof” (The Salk Institute for Biological Studies, priority 2002, dated 2010)
Entries after “also recorded” stand apart in the source; their conditions may differ.

Biological target: T1, FXR (Homo sapiens, UniProt Q96RI1)
T1 construct: using a full length FXR on a natural response element; expressed in transfected cells
T1 sequence (Q96RI1 1-486): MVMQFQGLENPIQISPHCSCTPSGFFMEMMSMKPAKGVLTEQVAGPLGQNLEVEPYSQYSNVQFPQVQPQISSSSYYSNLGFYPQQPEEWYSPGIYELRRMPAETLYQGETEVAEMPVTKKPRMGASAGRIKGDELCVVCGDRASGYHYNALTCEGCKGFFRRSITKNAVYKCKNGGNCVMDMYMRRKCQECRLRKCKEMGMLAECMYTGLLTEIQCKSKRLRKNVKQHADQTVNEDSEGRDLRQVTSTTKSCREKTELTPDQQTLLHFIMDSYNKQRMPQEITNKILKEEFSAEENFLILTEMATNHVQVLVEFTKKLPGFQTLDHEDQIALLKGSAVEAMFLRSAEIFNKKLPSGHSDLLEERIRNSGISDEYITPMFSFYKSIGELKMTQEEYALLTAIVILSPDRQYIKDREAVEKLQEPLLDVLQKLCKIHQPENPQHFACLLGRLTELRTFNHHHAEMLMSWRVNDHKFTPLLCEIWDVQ
Assay: cell-based FXR transcription assay, FXR responsive promoter linked to luciferase reporter
Details: for RE^a / EC50: cell-based FXR reporter assay; for RE^a: footnote a not given; for FXR activation, in words: cell-based reporter assay, SAR discussion; for EC50: determined with Prism 3.0
Excerpt: In addition to ensuring that only cell permeable compounds were selected for further optimization, this approach allows for the detection of FXR activation in a natural system (i.e., correct folding of the protein and in the presence of a complete compliment of co-activators and co-repressors).
The feasibility of creating high throughput screens (HTS) for ORs was explored using FXR as a candidate orphan receptor (OR) with a known activator, chenodeoxycholic acid (CDCA) as a ligand. The screen is based on the co-transfection of a full-length receptor with the reporter vector containing a natural hormone response element under a minimal eukaryotic promoter. […] Using this 384-well format, the high throughput screening (HTS) approach to FXR as a candidate OR was employed. […] A central question in the feasibility studies is whether this library is suitable for screening for nuclear receptor ligands. Samples of this library were first reformatted into a 384-well format and then subjected to the FXR cell-based assays described above and assessed for FXR-mediated transcriptional activity. Cells were exposed to approximately 10 μM of sample for 18 hrs prior to washing and luciferase analysis.
EC50 values were determined with Prism 3.0 software via the activity of the subject compound in the previously described cell based assay.

Row | Structure (SMILES) | RE^a | FXR activation, in words | EC50
1 | COC(=O)C=Cc1cccc(N(Cc2ccc(C=CC(=O)OC(C)(C)C)cc2OC(=O)c2ccccc2)C(=O)C2CCCCC2)c1 [Compound 165] | 0.16 |  | 
2 | CCOC(=O)COc1cc(C=CC(=O)OC(C)(C)C)ccc1CN(C(=O)C1CCCCC1)c1cccc(C=CC(=O)OC)c1 [Compound 167] | 0.18 |  | 
3 | COC(=O)/C=C/c1cccc(N(Cc2ccc(/C=C/c3ccc(C)cc3)cc2)C(=O)C(C)C)c1 [Compound 175] | 0.37 |  | 1.41 µM
4 | COC(=O)/C=C/c1cccc(N(Cc2ccc(/C=C/c3ccc(C)cc3)cc2)C(=O)NC(C)C)c1 [Compound 176] | 0.10 |  | 3.57 µM
5 | COC(=O)/C=C/c1cccc(N(Cc2ccc(/C=C/c3c(Cl)cccc3Cl)cc2)C(=O)C2CCCCC2)c1 [Compound 177] | 0.12 | excellent activity | 
6 | COC(=O)/C=C/c1cccc(N(Cc2ccc(/C=C/c3c(Cl)cccc3Cl)cc2)C(=O)C(C)C)c1 [Compound 178] | 0.14 |  | 
7 | COC(=O)/C=C/c1cccc(N(Cc2ccc(/C=C/c3cc(C(F)(F)F)cc(C(F)(F)F)c3)cc2)C(=O)C(C)C)c1 [Compound 184] | 0.13 |  | 
8 | COC(=O)/C=C/c1cccc(N(Cc2ccc(/C=C/c3cccc(C(F)(F)F)c3)cc2)C(=O)NC(C)C)c1 [Compound 188] | 0.31 |  | 
9 | COC(=O)/C=C/c1cccc(N(Cc2ccc(/C=C/c3c(F)cccc3F)cc2)C(=O)NC(C)C)c1 [Compound 191] | 0.21 |  | 
10 | COC(=O)C=Cc1cccc(N(Cc2ccc(C=Cc3ccccc3F)cc2)C(=O)C2CCCCC2)c1 [Compound 192] | 1.41 | excellent activity; also recorded: among the most active | 
11 | COC(=O)/C=C/c1cccc(N(Cc2ccc(/C=C/c3ccccc3F)cc2)C(=O)C(C)C)c1 [Compound 193] | 1.17 | excellent activity | 
12 | COC(=O)/C=C/c1cccc(N(Cc2ccc(/C=C/c3ccccc3F)cc2)C(=O)NC(C)C)c1 [Compound 194] | 0.69 |  | 
13 | COC(=O)/C=C/c1cccc(N(Cc2ccc(/C=C/c3c(C)cc(C)cc3C)cc2)C(=O)C(C)C)c1 [Compound 196] | 0.30 |  | 
14 | COC(=O)/C=C/c1cccc(N(Cc2ccc(/C=C/c3ccccc3)cc2)C(=O)NC(C)C)c1 [Compound 200] | 1.38 |  | 
15 | COC(=O)C=Cc1cccc(N(Cc2ccc(C=Cc3cccc(F)c3)cc2)C(=O)C2CCCCC2)c1 [Compound 201] | 1.36 | excellent activity; also recorded: among the most active | 
16 | COC(=O)/C=C/c1cccc(N(Cc2ccc(/C=C/c3cccc(F)c3)cc2)C(=O)C(C)C)c1 [Compound 202] | 1.33 | excellent activity | 
17 | COC(=O)C=Cc1cccc(N(Cc2ccc(C=Cc3ccc(F)cc3)cc2)C(=O)C2CCCCC2)c1 [Compound 204] | 0.53 | excellent activity; also recorded: among the most active | 
18 | COC(=O)C=Cc1cccc(N(Cc2ccc(C=Cc3ccccn3)cc2)C(=O)NC(C)C)c1 [Compound 209] | 0.68 |  | 
19 | COC(=O)C=Cc1cccc(N(Cc2ccc(C=Cc3scnc3C)cc2)C(=O)C(C)C)c1 [Compound 211] | 0.32 |  | 
20 | COC(=O)/C=C/c1cccc(N(Cc2ccc(-c3ccc(F)c(F)c3)cc2)C(=O)C(C)C)c1 [Compound 214] | 1.15 |  | 
21 | COC(=O)/C=C/c1cccc(N(Cc2ccc(-c3ccccc3OC)cc2)C(=O)C(C)C)c1 [Compound 219] | 0.28 |  | 
22 | COC(=O)/C=C/c1cccc(N(Cc2ccc(-c3ccccc3OC)cc2)C(=O)NC(C)C)c1 [Compound 220] | 0.09 |  | 
23 | COC(=O)/C=C/c1cccc(N(Cc2ccc(-c3cc(Cl)cc(Cl)c3)cc2)C(=O)C(C)C)c1 [Compound 221] | 0.54 |  | 0.661 µM

Now from value to molecule:

Row | RE^a | FXR activation, in words | EC50 | Structure (SMILES)
24 | 0.18 |  |  | COC(=O)C=Cc1cccc(N(Cc2ccc(C=CC(=O)OC(C)(C)C)cc2OS(C)(=O)=O)C(=O)C2CCCCC2)c1 [Compound 166]
25 | 0.83 | among the least active |  | COC(=O)/C=C/c1cccc(N(Cc2ccc(/C=C/c3ccc(C)cc3)cc2)C(=O)C2CCCCC2)c1 [Compound 174]
26 | 0.15 |  | 0.216 µM | COC(=O)/C=C/c1cccc(N(Cc2ccc(/C=C/c3c(Cl)cccc3Cl)cc2)C(=O)NC(C)C)c1 [Compound 179]
27 | 1.41 | excellent activity |  | COC(=O)C=Cc1cccc(N(Cc2ccc(C=Cc3cccc(Cl)c3)cc2)C(=O)C2CCCCC2)c1 [Compound 180]
28 | 1.09 | excellent activity | 0.164 µM | COC(=O)/C=C/c1cccc(N(Cc2ccc(/C=C/c3cccc(Cl)c3)cc2)C(=O)C(C)C)c1 [Compound 181]
29 | 0.59 |  |  | COC(=O)/C=C/c1cccc(N(Cc2ccc(/C=C/c3cccc(Cl)c3)cc2)C(=O)NC(C)C)c1 [Compound 182]
30 | 0.15 |  | 1.47 µM | COC(=O)C=Cc1cccc(N(Cc2ccc(C=Cc3cc(C(F)(F)F)cc(C(F)(F)F)c3)cc2)C(=O)C2CCCCC2)c1 [Compound 183]
31 | 0.13 |  |  | COC(=O)/C=C/c1cccc(N(Cc2ccc(/C=C/c3cc(C(F)(F)F)cc(C(F)(F)F)c3)cc2)C(=O)NC(C)C)c1 [Compound 185]
32 | 0.35 |  | 0.937 µM | COC(=O)C=Cc1cccc(N(Cc2ccc(C=Cc3cccc(C(F)(F)F)c3)cc2)C(=O)C2CCCCC2)c1 [Compound 186]
33 | 0.70 |  |  | COC(=O)/C=C/c1cccc(N(Cc2ccc(/C=C/c3cccc(C(F)(F)F)c3)cc2)C(=O)C(C)C)c1 [Compound 187]
34 | 0.94 | excellent activity |  | COC(=O)C=Cc1cccc(N(Cc2ccc(C=Cc3c(F)cccc3F)cc2)C(=O)C2CCCCC2)c1 [Compound 189]
35 | 0.79 | excellent activity | 0.108 µM | COC(=O)/C=C/c1cccc(N(Cc2ccc(/C=C/c3c(F)cccc3F)cc2)C(=O)C(C)C)c1 [Compound 190]
36 | 0.24 | among the least active |  | COC(=O)C=Cc1cccc(N(Cc2ccc(C=Cc3c(C)cc(C)cc3C)cc2)C(=O)C2CCCCC2)c1 [Compound 195]
37 | 0.14 |  |  | COC(=O)/C=C/c1cccc(N(Cc2ccc(/C=C/c3c(C)cc(C)cc3C)cc2)C(=O)NC(C)C)c1 [Compound 197]
38 | 1.33 | excellent activity |  | COC(=O)/C=C/c1cccc(N(Cc2ccc(/C=C/c3ccccc3)cc2)C(=O)C(C)C)c1 [Compound 198]
39 | 0.61 |  |  | COC(=O)/C=C/c1cccc(N(Cc2ccc(/C=C/c3cccc(F)c3)cc2)C(=O)NC(C)C)c1 [Compound 203]
40 | 1.19 | excellent activity | 0.12 µM | COC(=O)/C=C/c1cccc(N(Cc2ccc(/C=C/c3ccc(F)cc3)cc2)C(=O)C(C)C)c1 [Compound 205]
41 | 0.91 |  |  | COC(=O)/C=C/c1cccc(N(Cc2ccc(/C=C/c3ccc(F)cc3)cc2)C(=O)NC(C)C)c1 [Compound 206]
42 | 0.81 |  |  | COC(=O)C=Cc1cccc(N(Cc2ccc(C=Cc3ccccn3)cc2)C(=O)C2CCCCC2)c1 [Compound 207]
43 | 0.62 |  |  | COC(=O)C=Cc1cccc(N(Cc2ccc(C=Cc3ccccn3)cc2)C(=O)C(C)C)c1 [Compound 208]
44 | 0.53 |  |  | COC(=O)C=Cc1cccc(N(Cc2ccc(C=Cc3scnc3C)cc2)C(=O)C2CCCCC2)c1 [Compound 210]
45 | 0.42 |  |  | COC(=O)C=Cc1cccc(N(Cc2ccc(C=Cc3scnc3C)cc2)C(=O)NC(C)C)c1 [Compound 212]
46 | 1.70 | excellent activity |  | COC(=O)/C=C/c1cccc(N(Cc2ccc(-c3ccc(F)c(F)c3)cc2)C(=O)C2CCCCC2)c1 [Compound 213]
47 | 0.23 |  |  | COC(=O)/C=C/c1cccc(N(Cc2ccc(-c3ccc(F)c(F)c3)cc2)C(=O)NC(C)C)c1 [Compound 215]
48 | 0.98 | excellent activity |  | COC(=O)/C=C/c1cccc(N(Cc2ccc(-c3ccc(SC)cc3)cc2)C(=O)C(C)C)c1 [Compound 216]
49 | 0.23 |  |  | COC(=O)/C=C/c1cccc(N(Cc2ccc(-c3ccc(SC)cc3)cc2)C(=O)NC(C)C)c1 [Compound 217]
50 | 0.49 |  | 0.359 µM | COC(=O)/C=C/c1cccc(N(Cc2ccc(-c3ccccc3OC)cc2)C(=O)C2CCCCC2)c1 [Compound 218]
51 | 0.10 |  | < 10 µM | COC(=O)/C=C/c1cccc(N(Cc2ccc(-c3cc(Cl)cc(Cl)c3)cc2)C(=O)NC(C)C)c1 [Compound 222]
